Source: the METLIN SMRT retention time set (Domingo-Almenara et al. 2019)

Assay: gradient 5% acetonitrile 3 min, to 50% in 2 min, to 85% in 15 min, held 3 min, 100 µL/min
Settings: column: Zorbax Extend-C18 2.1 x 50 mm; eluents: water / acetonitrile, 0.1% formic acid
How it was run: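 The mobile phases were water and acetonitrile, each with 0.1% formic acid, pumped at 100 μL/min through a Zorbax Extend-C18 column (2.1 × 50 mm, 1.8 μm). Pure standards were injected as mixtures of ~100 molecules and detected by a quadrupole time-of-flight mass spectrometer in positive and negative ionization mode. Retention time came from computationally picked adduct peaks, each inspected by hand.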

Row | SMILES | RP-LC retention time
1 | CCc1nc2cccnc2n1-c1ccc(C(=O)NC)cc1 | 659 s
2 | CCCN1N=C(C(=O)N2CCOCC2)S(=O)(=O)c2ccc(Cl)cc21 | 809 s
3 | COc1ccc(C)cc1NC(=O)Cn1ncc2c(c1=O)N(C1CC1)C(=O)CS2 | 794 s
4 | Cn1nccc1-c1cccc(-c2noc(-c3cnccn3)n2)c1 | 786 s
5 | O=C(C1CCN(S(=O)(=O)c2ccc(-c3noc(C4CCCCC4)n3)cc2)CC1)N1CCCC1 | 836 s
6 | CN(CCc1noc(-c2ccc(C(=O)N3CCN(c4ccccn4)CC3)cc2)n1)C(=O)c1ccccc1 | 625 s
7 | CCNC(=O)NC1CCN(c2ccccc2)C1=O (stereo unspecified) | 596 s
8 | COc1ccc(-c2cc(C)no2)cc1S(=O)(=O)N1CCN(c2ccccn2)CC1 | 651 s
9 | O=C(Nc1cnc(N2CCCCC2)nc1)c1ccc(Cl)s1 | 1020 s
10 | O=C(NCc1ccc(F)cc1F)C1CCc2nc(N3CCOCC3)ncc2C1 (stereo unspecified) | 682 s
11 | c1ccc(N2CCN(CCCOc3ccc4c(c3)OCO4)CC2)cc1 | 770 s
12 | O=C(NCc1cnoc1-c1ccc(F)cc1)c1ccccc1 | 844 s
13 | CC(=O)N1CCN(c2nc3c(s2)CC(C(=O)N2CCC(C)CC2)CC3)CC1 (stereo unspecified) | 537 s
14 | O=C(COc1ccccc1)Nc1cnc(-c2cccnc2)nc1 | 678 s
15 | CN(Cc1ccco1)C(=O)CC1CCN(C(=O)c2cc3cc(Cl)ccc3[nH]2)CC1 | 897 s
16 | Cn1ccc(CN2CCC(Cc3ccccc3)CC2)cc1=O | 611 s
17 | Cc1noc(C)c1CCC(=O)N1CCc2nn(CC#N)c(=O)n2CC1 | 630 s
18 | CCc1nn(CC)c(=O)c2cc(S(=O)(=O)NC(C)c3ccccc3)cn12 (stereo unspecified) | 964 s
19 | O=C(NC1CC1)c1ccc(OCC2CCCN(C(=O)c3c(F)cccc3F)C2)cc1 (stereo unspecified) | 820 s
20 | COc1ccc(NC(=O)N2CCCC2c2nc(-c3ccccc3OC)no2)c(C)c1 (stereo unspecified) | 809 s
21 | O=C(Nc1ccc(F)c(Cl)c1)C1CCCN(c2ccnc(-c3ccc(F)cc3)n2)C1 (stereo unspecified) | 780 s

Row | SMILES | RP-LC retention time
22 | CCN1C(=O)COc2cc(-c3noc(C(=O)NCC4CCCO4)n3)ccc21 (stereo unspecified) | 783 s
23 | COc1ccc(CC(=O)N2CCC3(C2)C(=O)N(C)c2ccc(OC)cc23)c(Cl)c1 (stereo unspecified) | 825 s
24 | O=C(Cc1ccccc1)Nc1cccc(C(=O)Nc2ccccc2C(=O)O)c1 | 830 s
25 | O=S(=O)(c1ccccc1F)N1CCC(c2noc(-c3cccc(F)c3)n2)CC1 | 1110 s
26 | CCOCCn1c(-c2ccccc2Cl)nc2ccccc21 | 707 s
27 | COc1ccc(C2Cn3nnc(-c4nc(-c5ccccc5OC)no4)c3CO2)cc1 (stereo unspecified) | 1010 s
28 | Cc1ccc(-c2nc(NCCC3=CCCCC3)c3ccccc3n2)cc1 | 974 s
29 | CCOC(=O)c1ccccc1NC(=O)Cn1c(=O)n(CC)c(=O)c2c1cc(C)n2C | 978 s
30 | COCCNC(=O)c1ccc(CS(=O)Cc2ccccc2Cl)o1 (stereo unspecified) | 664 s
31 | O=C(Nc1cc(-c2cccs2)no1)C1(c2ccccc2)CC1 | 1050 s
32 | CCOC(=O)N1CCN(C(=O)Cc2csc(NC(=O)c3cnccn3)n2)CC1 | 598 s
33 | Cc1ccc(NC(=O)Cn2nc(N(C)C)c3ccccc3c2=O)cc1F | 920 s
34 | O=C(C1CC(=O)N(c2n[nH]c3ccccc23)C1)N1CCC(c2nc3ccccc3[nH]2)CC1 (stereo unspecified) | 591 s
35 | Cc1nc2ccc(NC(=O)Cc3ccc4c(c3)OCO4)cc2s1 | 716 s
36 | Fc1ccc(-c2nnc(Cc3nc(-c4ccc5c(c4)OCO5)no3)o2)cc1 | 957 s
37 | CCC(C)C(=O)NC1CCN(C2=NS(=O)(=O)C(c3ccccc3)=C2C)CC1 (stereo unspecified) | 752 s
38 | O=C(NCc1ccc2[nH]c3c(c2c1)CCCC3)C1CC1 | 735 s
39 | Cc1cnc(CC2CCN(S(=O)(=O)Cc3ccccc3)C2)n1C(C)C (stereo unspecified) | 663 s
40 | O=C(NCc1ccccc1)C1CCc2nc(N3CCN(C(=O)C4CCC4)CC3)sc2C1 (stereo unspecified) | 578 s
41 | CNC(=O)c1sc2nc(-c3cccc(F)c3)c(NCCOC)n2c1C | 734 s
42 | O=C(NCc1noc(Cc2ccccc2)n1)c1ccccc1 | 798 s

Row | SMILES | RP-LC retention time
43 | Cc1cccc(-c2ncccc2CNS(=O)(=O)Cc2ccc(Cl)cc2)c1 | 765 s
44 | CC1(c2ccccc2)O[C@@H]2C[C@H]3[C@@H]4CCC5=CC(=O)C=C[C@]5(C)[C@@]4(F)[C@@H](O)C[C@]3(C)[C@]2(C(=O)CO)O1 (stereo partly specified) | 870 s
45 | Cc1ccc(Nc2nc(C(=O)NC3CCCC3)nc3ccccc23)cc1 | 853 s
46 | Cc1ccc(Nc2c(-c3ccc(Br)cc3)nc3cnccn23)cc1 | 1100 s
47 | Cc1cccc2nc(-c3ccc(N4CCOCC4)cc3)c(Nc3ccc4c(c3)OCO4)n12 | 676 s
48 | Cc1ccsc1C(=O)Nc1cccc(-c2nnc3n2CCCC3)c1 | 640 s
49 | O=C(C1CCN(c2ccc(-c3cccs3)nn2)CC1)N1CCN(c2ccccn2)CC1 | 568 s
50 | O=C(Nc1ccsc1-c1nnc(C2CC2)o1)c1ccsc1 | 1170 s
51 | CCCS(=O)(=O)c1nc2ccc(NS(=O)(=O)c3ccccc3Cl)cc2s1 | 906 s
52 | Cn1nc(-c2nc(C3CC3)no2)c2c1CCN(C(=O)c1ccccc1F)C2 | 805 s
53 | Cc1nc(C)c(C(=O)N2CCC(Cc3noc(C4CC4)n3)C2)s1 (stereo unspecified) | 664 s
54 | O=C(CCC1CCN(c2cc(NC3CC3)ncn2)CC1)NCCc1cccs1 | 656 s
55 | CCn1c(=O)c(C)nc2cc(-c3noc(-c4ccc(F)c(F)c4)n3)ccc21 | 1150 s
56 | CN(C)c1cccc(-c2nn3c(-c4ccc5ccccc5n4)nnc3s2)c1 | 1070 s
57 | CCn1cnc(S(=O)(=O)N2CCC(C(=O)Nc3cc(C)ccc3C)CC2)c1 | 719 s
58 | Clc1cccc(-c2nnc(-c3nc(NCc4ccco4)c4ccccc4n3)o2)c1 | 1050 s
59 | CC(C(=O)NCCc1c[nH]c2ccccc12)C1CCN(S(=O)(=O)c2cccs2)CC1 (stereo unspecified) | 841 s
60 | CCOc1cc(C2c3c(n[nH]c3C)C(=O)N2C)ccc1O (stereo unspecified) | 626 s
61 | O=C(NCCCn1cccc1)c1cc(-c2ccccc2)on1 | 888 s
62 | Cc1ccc(Cn2cc(-c3noc(-c4ccc(N(C)C)cc4)n3)nn2)cc1 | 1070 s

More lines, now with the values ahead:

Row | RP-LC retention time | SMILES
63 | 750 s | Cc1ccccc1C1CC(=O)c2cnc(N3CCC(C(N)=O)CC3)nc2C1 (stereo unspecified)
64 | 821 s | Cc1ccc2c(Nc3ccccc3Cl)c(-c3nc(C)no3)cnc2n1
65 | 867 s | COCC(=O)N(CC(=O)N1CCc2sccc2C1COc1ccc(C)cc1)C(C)C (stereo unspecified)
66 | 874 s | CC(C)NC(=O)c1ccc(-c2ccc(Cl)cc2)o1
67 | 795 s | COCCNC(=O)C(=O)Nc1ccc(Br)cc1
68 | 875 s | CCC(=O)n1nc(-c2ccccc2C)nc1N
69 | 1090 s | O=C1CCCCC1Oc1cc(O)c2c(=O)cc(-c3ccccc3)oc2c1 (stereo unspecified)
70 | 1210 s | CCOc1ccc(-c2cc3c(=O)n(Cc4nc(-c5cccc(C)c5)no4)ncn3n2)cc1
71 | 619 s | COCCOCC(=O)N1CCC(c2noc(C3CC3)n2)C1 (stereo unspecified)
72 | 706 s | COc1ccc(NC(=O)Cc2csc(NC(=O)C3CC3)n2)cc1C
73 | 932 s | COc1ccc(-n2ccc(=O)c(-c3nc(-c4ccc(C)cc4)no3)n2)cc1
74 | 813 s | O=C(CN1CCN(Cc2ccccc2)C1=O)N1CCN(c2ccc(F)cc2)CC1
75 | 530 s | Cc1noc(C2CN(C(=O)c3ccc(=O)n(C)n3)C2)n1
76 | 837 s | O=C(c1cc(F)cc(F)c1)N1CCN(c2cc(-c3ccc(F)cc3)[nH]n2)CC1
77 | 559 s | O=C(CC1CCN(C(=O)c2cc3ccccc3[nH]2)CC1)NCCN1CCCC1
78 | 804 s | O=C(NCc1cccs1)c1nnc(-c2ccc(S(=O)(=O)N3CCOCC3)cc2)o1
79 | 626 s | O=C(NN1CCCCC1)NN1CCCCC1
80 | 771 s | CC(=O)N1CCc2cc(-c3ccc(C(=O)N4CCN(c5ncccn5)CC4)cc3)ccc21
81 | 623 s | COCC(=O)NC1CCC12CCN(S(=O)(=O)c1cn(C)cn1)CC2 (stereo unspecified)
82 | 715 s | Clc1ccc2nc(-c3ccc(N4CCOCC4)cc3)c(Nc3ccc4c(c3)OCO4)n2c1
83 | 1320 s | Cc1ccc(C)c(NS(=O)(=O)c2cc(-c3cc(C(F)(F)F)on3)sc2C)c1
84 | 572 s | CCC(C)NC(=O)Cn1nc(Cc2ccncc2)c2ccccc2c1=O (stereo unspecified)
85 | 678 s | O=C1NCCCn2cc(S(=O)(=O)Nc3ccc(Cl)cc3F)cc21
86 | 668 s | Cc1ccc(C)c(NC(=O)C2CCCN(c3cn[nH]c(=O)c3)C2)c1 (stereo unspecified)
87 | 647 s | Nc1nnc(-c2ccc(Br)cc2)o1
88 | 650 s | Nc1cc([N+](=O)[O-])ccc1N1C(=O)CCCC1=O
89 | 1150 s | Cc1nc(-c2cc(S(=O)(=O)NCc3ccc(OC(C)C)cc3)c(C)s2)sc1C
90 | 614 s | COc1ccc(C(=O)Nc2ccc3nc(N4CCN(C5CCCCC5)CC4)cc(C(=O)O)c3c2)cc1
91 | 805 s | Cc1cccc(Cn2c(CN3CCC(C(=O)NCc4cccs4)CC3)cc3ccccc32)c1
